Data set [1] concerns zebrafish neuromast HCs. Description: Zebrafish lateral-line neuromast hair cell protection against Cisplatin. The data set is classed as in vivo, Danio rerio. As for the experimental part:
Danio rerio experimental larvae were obtained by pair mating of adult fish maintained at Creighton University by standard methods approved by the Institutional Animal Care and Use Committee. […] We used Tg(pou4f3:mGFP) expressing a membrane bound GFP in HCs. Experimental fish were maintained at 28.5° C. in E3 media (5 mM NaCl, 0.17 mM KCl, 0.33 mM CaCl2) and […], pH 7.2). Animals were cryoanaesthetized after drug treatment and prior to fixation. The neuromasts inspected, S03 and 01-2, were part of the cranial system and included the otic, middle, and opercular neuromasts.
Subsequently, animals were transferred to E3 water for 5 hours and fixed in 4% paraformaldehyde (PFA) overnight (26). Neuromast HCs were immunolabeled with anti-otoferlin (HCS-1, DSHB) and anti-GFP (NB100-1614, Novus Biologicals). These two markers were used to detect and count neuromast HCs to reduce the chances of missing some of the HCs after the treatment since we previously noticed that incubation with the compounds can affect GFP expression more difficult to detect under a fluorescence microscope. Otic, middle, and opercular neuromasts were identified, and HCs at S03 (supraorbital line neuromast) and 01-2 (Otic line neuromasts) were manually counted using a Zeiss AxioSkop 2 fluorescence microscope with a 40× oil objective. Compounds were then evaluated on efficiency and potency, with the top-rated compounds showing high protection at lower concentrations.

Data set [2] relates to FVB/NJ mice. Description: Safety monitoring of drugs IP in FVB/NJ mice, with or without Cisplatin. Format: in vivo, mouse. How it is done:
To investigate the drugs' effects on mammalian auditory function in vivo, we first treated 5-7 weeks old FVB/NJ mice with […] drug candidates: Niclosamide (10 mg/kg/day), Ingenol (0.3 mg/kg/day), Elesclomol (5 mg/kg/day), for 4 consecutive days (IP) to monitor safety of the drugs. All tested doses were determined based on previous published data showing maximum non-toxic dose through intraperitoneal (IP) injection.
Baseline auditory brainstem response (ABR) were measured on 16 mice divided in 3 groups receiving Ingenol, Elesclomol, and Niclosamide. The mice received the drug doses described above, then on day 2 of drug injection mice also received 30 mg/kg Cisplatin (IP; 4 mice per group).

The test system of data set [3] is zebrafish neuromast HCs. The data set is described as follows: NMDA excitotoxicity in zebrafish neuromast hair cells. The data set is classed as in vivo. As to conditions: 2 nM and 18 nM; 300 μM NMDA. As for the experimental part: Now referring to FIGS. […], representative samples of the mouse HCs at 32 kHz, the most protected frequency region shown by ABR measurement (FIG. 4E). […] Niclosamide protects NMDA-induced hair cell loss in zebrafish. Application of the N-methyl-d-aspartate (NMDA) to zebrafish neuromast HCs has also been used to mimic glutamate excitotoxicity associated with noise exposure (Katie S. Kindt and Lavinia Sheets, 2018). The results of the HC count following exposure of zebrafish to 300 μM NMDA led to hair-cell loss.
Now referring to FIGS. 5A-5F Niclosamide had protective effects on NIHL in Zebrafish and FVB/NJ mice in vivo. CIHL and NIHL share mechanistic commonalities. Now referring to FIG. 5A, to test whether Niclosamide protects HCs from excitotoxic trauma, a zebrafish model that mimics noise damage was employed, Zebrafish were exposed to the ionotropic glutamate receptor agonist, N-methyl-D-aspartate (NMDA), previously shown to cause progressive HC loss in zebrafish lateral-line organs (Sheets, 2017) with or without niclosamide. 5-dpf larvae were preincubated with 300 μM NMDA for 50 min followed by 2 hours incubation with niclosamide at 2 nM and 18.3 nM.

Data set [4] has as its system zebrafish neuromast HCs. Description: Niclosamide/ezetimibe combination hair cell protection in Cisplatin-treated zebrafish (Loewe synergy). Format: in vivo. To be noted: concentrations above 2 nM, cisplatin 300 μM. How it is done: Now referring to FIGS. 6A-6B, 5 dpf zebrafish were either incubated with vehicle (DMSO), cisplatin alone at 300 μM concentration, cisplatin and ezetimibe (0.002 μM to 13.3 μM), cisplatin and niclosamide (0.02 nM to 18.3 nM), or cisplatin and combination ezetimibe/niclosamide. After 6 hours, animals were transferred to fresh water for 1 hour and then sacrificed and processed for immunohistochemistry and HC count as described above. To further elucidate whether Niclosamide, synergizes with Nrf2 activators to protect zebrafish HCs from Cisplatin damage, we tested the extent of HC damage in presence of Niclosamide and a Nrf2 activator, ezetimibe.
A three-dimensional contour plot (A) showing dose response of neuromast hair cell protection in zebrafish treated with varying concentrations of niclosamide and ezetimibe mapped to synergy distribution. […] Other dose combinations showing synergy are shown in dark blue boxes. Dose combinations with scores of 0 and 1 show additive effect. *P<5×10−2; **P<10−3, ***P<10−4 versus control fish, One-sample t-test run by the Combenefit software44. Data is shown as mean±standard deviation.
Zebrafish were treated with combinations of Niclosamide (ranging from 0.02-18.3 nM) and EZ (ranging from 0.0183-13.3 μM).

Data set [5] has as its system A549. Description: Survival of A549 cells with or without Cisplatin and Niclosamide. Format: cell-based. To be noted: 10 nM. As for the experimental part:
Now referring to FIG. 8, In vitro model of […] incubated with or without Cisplatin and 10 nM of Niclosamide. Cells were maintained in culture with the aid of Matrigel as previously described in Kelley and Driver, Curr. Protoc. Neurosci. Ch.(4); Unit(4); 34.1-10 (2010). After cells had been in culture for 1 d, growth medium DMEM (12430-054; GIB CO Life Technologies, with 1% FBS [16000-044; GIB CO Life Technologies] and 50 μg/ml ampicillin) with or without test compounds may be added for preincubation for 1 hr. at 37° C. in 5% Co2, and may be followed by incubation with 50 μM Cisplatin (479306; Sigma-Aldrich) with or without the test compound in growth medium for 24 hr. at 37° C. A Cisplatin concentration of 50 μM may be used for the explant assay due to its consistent showing of decreases outer hair cells by about −40% in the mouse cochlea after 24 hours. Cochlea may be fixed in 4% PFA and stained for actin with Alex Fluor 568 phalloidin to determine the viability of the HCs. Cochlea may also be stained by DAPI, FM1-43 dye uptake, and immunohistochemical staining for known HC markers (including parvalbumin and myosin 7a. Cochlea may be imaged by confocal microscopy. Two 160-μm regions from middle turns may be photographed, and the number of intact HCs can be counted.

The conditions of data set [6]: following 2,000 mg oral use; cited from earlier work.
Setting [7] is: 20 mg/kg/day IP, 4 consecutive days.

For orientation: Cmax means the maximum level reached in the sampled fluid or tissue. `O=C(Nc1ccc([N+](=O)[O-])cc1Cl)c1cc(Cl)ccc1O` [Niclosamide, 5-chloro-N-(2-chloro-4-nitrophenyl)-2-hydroxy-benzamide]: the “highest level of protection of neuromast HCs” value in data set [1] (0.002 μM, lowest concentration tested, normalized to Cisplatin only (0%) and DMSO (100%)) is roughly 50%. For the same molecule, in data set [1] (0.002-13.3 μM, Cisplatin-treated zebrafish), the “hair cell loss (fluorescent staining of neuromasts)” value is recorded as “reduce hair cell loss”. The “Cisplatin damage in zebrafish HCs at S03 and O1-2” value in data set [1] (pretreated with 0.002 μM) was “significantly reduced Cisplatin damage”. Also, in data set [2] (setting [7]), the clinical signs result was “sign of pain and distress including mouse hunch”; the weight loss is 20-30%. Moreover, the “weight loss, pain and distress” value in data set [2] (Niclosamide 10, Ingenol 0.3, Elesclomol 5 mg/kg/day IP, 4 consecutive days) was “None of the mice showed reduced weight loss or signs of pain and distress”. Also, the “general toxicity versus Cisplatin alone” value in data set [2] (combination with Cisplatin 30 mg/kg single injection) is on record as “no general toxicity”. In addition, the weight loss result in data set [2] (drug IP daily plus 30 mg/kg Cisplatin IP on day 2) is recorded as “less than 10%”. Also, in data set [2] (maximum IP doses approved by IACUC), the “weight loss or abnormal behavior” value was “no weight loss or abnormal behavior”. The survival result in data set [2] (plus 30 mg/kg Cisplatin, through day 5 post-Cisplatin injection) is reported as “all survived”. The “HC survival after NMDA” value in data set [3] is reported as “significantly increased HC survival”. Moreover, the “HC per neuromast counts, compound alone” value in data set [4] was “higher counts”. For the same molecule, the “effect on Cisplatin-tumor killing activity” value in data set [5] was “did not affect Cisplatin-tumor killing activity”. In data set [6], the peak concentration (Cmax) was 18 µM.

These data come from patent publication US12661362B2, “Methods for the prevention and treatment of hearing loss” (Ting Therapeutics LLC, priority 2020, dated 2026).
